In PubChem BioAssay (NCI):
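Cells were grown in 96-well plates and exposed to each compound for 48 hours at five concentrations; endpoints were interpolated linearly between bracketing concentrations, or set to the highest concentration if not reached. TGI denotes the concentration required for complete inhibition of growth.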 The source made the active and inactive calls. Rule as the data show it: active = GI50 below about 0.43 µM; inactive = the rest.

Tests used:
Test in all cases: NCI anticancer screen, dose series, 48 h
NCI-H23 lung = tested on: NCI-H23 lung
HOP-92 NSCLC = tested on: HOP-92 NSCLC
KM20L2 colon = tested on: KM20L2 colon
DMS 273 small cell lung = tested on: DMS 273 small cell lung
DMS 114 small cell lung = tested on: DMS 114 small cell lung
M14 melanoma = tested on: M14 melanoma
COLO 205 colon = tested on: COLO 205 colon
OVCAR-3 ovarian = tested on: OVCAR-3 ovarian
IGROV1 ovarian = tested on: IGROV1 ovarian
RPMI-8226 leukemia = tested on: RPMI-8226 leukemia
XF 498 CNS = tested on: XF 498 CNS
SNB-75 CNS = tested on: SNB-75 CNS
KM12 colon = tested on: KM12 colon
DLD-1 colon = tested on: DLD-1 colon
SW-620 colon = tested on: SW-620 colon
NCI-H226 lung = tested on: NCI-H226 lung
MOLT-4 leukemia = tested on: MOLT-4 leukemia
MALME-3M melanoma = tested on: MALME-3M melanoma
SNB-78 CNS = tested on: SNB-78 CNS
SF-268 CNS = tested on: SF-268 CNS
HCT-15 colon = tested on: HCT-15 colon
HL-60(TB) leukemia = tested on: HL-60(TB) leukemia
HT29 colon = tested on: HT29 colon
RXF 393 renal = tested on: RXF 393 renal
786-0 renal = tested on: 786-0 renal
SN12C renal = tested on: SN12C renal
HOP-62 NSCLC = tested on: HOP-62 NSCLC
CAKI-1 renal = tested on: CAKI-1 renal
A549 NSCLC = tested on: A549 NSCLC
OVCAR-8 ovarian = tested on: OVCAR-8 ovarian
SK-MEL-2 melanoma = tested on: SK-MEL-2 melanoma
SNB-19 CNS = tested on: SNB-19 CNS
TK-10 renal = tested on: TK-10 renal
UO-31 renal = tested on: UO-31 renal
ACHN renal = tested on: ACHN renal
UACC-257 melanoma = tested on: UACC-257 melanoma
NCI-H522 lung = tested on: NCI-H522 lung
SK-OV-3 ovarian = tested on: SK-OV-3 ovarian
SF-539 CNS = tested on: SF-539 CNS
CCRF-CEM leukemia = tested on: CCRF-CEM leukemia
LXFL 529 NSCLC = tested on: LXFL 529 NSCLC
U251 CNS = tested on: U251 CNS
K-562 leukemia = tested on: K-562 leukemia
UACC-62 melanoma = tested on: UACC-62 melanoma
OVCAR-5 ovarian = tested on: OVCAR-5 ovarian
SR leukemia = tested on: SR leukemia
LOX IMVI melanoma = tested on: LOX IMVI melanoma
EKVX NSCLC = tested on: EKVX NSCLC
SF-295 CNS = tested on: SF-295 CNS
NCI-H460 lung = tested on: NCI-H460 lung
OVCAR-4 ovarian = tested on: OVCAR-4 ovarian
A498 renal = tested on: A498 renal
M19-MEL melanoma = tested on: M19-MEL melanoma
HCC-2998 colon = tested on: HCC-2998 colon
HCT-116 colon = tested on: HCT-116 colon
SK-MEL-5 melanoma = tested on: SK-MEL-5 melanoma
SK-MEL-28 melanoma = tested on: SK-MEL-28 melanoma

C[C@@]1(C(=O)c2ccccc2)N(c2ccccc2)[C@@]1(C)C(=O)c1ccccc1
outcome (NCI-H23 lung): inactive
outcome (HOP-92 NSCLC): inactive
outcome (KM20L2 colon): inactive
outcome (DMS 273 small cell lung): inactive
outcome (DMS 114 small cell lung): inactive
outcome (M14 melanoma): inactive
outcome (COLO 205 colon): inactive
outcome (OVCAR-3 ovarian): inactive
outcome (IGROV1 ovarian): inactive
outcome (RPMI-8226 leukemia): inactive
outcome (XF 498 CNS): inactive
outcome (SNB-75 CNS): inactive
outcome (KM12 colon): inactive
outcome (DLD-1 colon): inactive
outcome (SW-620 colon): inactive
outcome (NCI-H226 lung): inactive
outcome (MOLT-4 leukemia): inactive
outcome (MALME-3M melanoma): inactive
outcome (SNB-78 CNS): inactive
outcome (SF-268 CNS): inactive
outcome (HCT-15 colon): inactive
outcome (HL-60(TB) leukemia): inactive
outcome (HT29 colon): inactive
outcome (RXF 393 renal): inactive
outcome (786-0 renal): inactive
outcome (SN12C renal): inactive
outcome (HOP-62 NSCLC): inactive
outcome (CAKI-1 renal): inactive
outcome (A549 NSCLC): inactive
outcome (OVCAR-8 ovarian): inactive
outcome (SK-MEL-2 melanoma): inactive
outcome (SNB-19 CNS): inactive
outcome (TK-10 renal): inactive
outcome (UO-31 renal): inactive
outcome (ACHN renal): inactive
outcome (UACC-257 melanoma): inactive
outcome (NCI-H522 lung): inactive
outcome (SK-OV-3 ovarian): inactive
outcome (SF-539 CNS): inactive
outcome (CCRF-CEM leukemia): inactive
outcome (LXFL 529 NSCLC): inactive
outcome (U251 CNS): inactive
outcome (K-562 leukemia): inactive
outcome (UACC-62 melanoma): inactive
outcome (OVCAR-5 ovarian): inactive
outcome (SR leukemia): inactive
outcome (LOX IMVI melanoma): inactive
outcome (EKVX NSCLC): inactive
outcome (SF-295 CNS): inactive
outcome (NCI-H460 lung): inactive

O=C1c2cccc(O)c2C(=O)c2cccc(O)c21
TGI (NCI-H23 lung): > 100 µM
TGI (HOP-92 NSCLC): > 100 µM
TGI (DMS 273 small cell lung): > 100 µM
TGI (OVCAR-4 ovarian): > 100 µM
TGI (M14 melanoma): > 100 µM
TGI (COLO 205 colon): > 100 µM
TGI (A498 renal): > 100 µM
TGI (OVCAR-3 ovarian): > 100 µM
TGI (IGROV1 ovarian): > 100 µM
TGI (RPMI-8226 leukemia): > 100 µM
TGI (XF 498 CNS): > 100 µM
TGI (SNB-75 CNS): > 100 µM
TGI (KM12 colon): > 100 µM
TGI (DLD-1 colon): > 100 µM
TGI (SW-620 colon): > 100 µM
TGI (NCI-H226 lung): > 100 µM
TGI (MOLT-4 leukemia): > 100 µM
TGI (SNB-78 CNS): > 100 µM
TGI (SF-268 CNS): > 100 µM
TGI (HCT-15 colon): > 100 µM
TGI (HT29 colon): > 100 µM
TGI (RXF 393 renal): > 100 µM
TGI (786-0 renal): > 100 µM
TGI (SN12C renal): > 100 µM
TGI (HOP-62 NSCLC): > 100 µM
TGI (M19-MEL melanoma): > 100 µM
TGI (CAKI-1 renal): > 100 µM
TGI (A549 NSCLC): > 100 µM
TGI (OVCAR-8 ovarian): > 100 µM
TGI (SK-MEL-2 melanoma): > 100 µM
TGI (SNB-19 CNS): > 100 µM
TGI (TK-10 renal): > 100 µM
TGI (UO-31 renal): > 100 µM
TGI (ACHN renal): > 100 µM
TGI (UACC-257 melanoma): > 100 µM
TGI (NCI-H522 lung): > 100 µM
TGI (SF-539 CNS): > 100 µM
TGI (CCRF-CEM leukemia): > 100 µM
TGI (LXFL 529 NSCLC): > 100 µM
TGI (U251 CNS): > 100 µM
TGI (K-562 leukemia): > 100 µM
TGI (HCC-2998 colon): > 100 µM
TGI (HCT-116 colon): > 100 µM
TGI (UACC-62 melanoma): > 100 µM
TGI (OVCAR-5 ovarian): > 100 µM
TGI (LOX IMVI melanoma): > 100 µM
TGI (EKVX NSCLC): > 100 µM
TGI (SF-295 CNS): > 100 µM
TGI (NCI-H460 lung): > 100 µM

COc1ccc(/C=c2/sc3n(c2=O)NC2(CCCCC2)NN=3)cc1
TGI (NCI-H23 lung): > 100 µM
TGI (HOP-92 NSCLC): > 100 µM
TGI (KM20L2 colon): > 100 µM
TGI (DMS 273 small cell lung): > 100 µM
TGI (OVCAR-4 ovarian): > 100 µM
TGI (M14 melanoma): > 100 µM
TGI (COLO 205 colon): > 100 µM
TGI (OVCAR-3 ovarian): > 100 µM
TGI (IGROV1 ovarian): > 100 µM
TGI (XF 498 CNS): > 100 µM
TGI (SNB-75 CNS): > 100 µM
TGI (SK-MEL-5 melanoma): > 100 µM
TGI (KM12 colon): > 100 µM
TGI (DLD-1 colon): > 100 µM
TGI (SW-620 colon): > 100 µM
TGI (NCI-H226 lung): > 100 µM
TGI (MOLT-4 leukemia): > 100 µM
TGI (MALME-3M melanoma): > 100 µM
TGI (SNB-78 CNS): > 100 µM
TGI (SF-268 CNS): > 100 µM
TGI (HT29 colon): > 100 µM
TGI (RXF 393 renal): > 100 µM
TGI (786-0 renal): > 100 µM
TGI (SN12C renal): > 100 µM
TGI (M19-MEL melanoma): > 100 µM
TGI (CAKI-1 renal): > 100 µM
TGI (A549 NSCLC): > 100 µM
TGI (OVCAR-8 ovarian): > 100 µM
TGI (SK-MEL-2 melanoma): > 100 µM
TGI (SNB-19 CNS): > 100 µM
TGI (TK-10 renal): > 100 µM
TGI (UO-31 renal): > 100 µM
TGI (NCI-H522 lung): > 100 µM
TGI (SK-OV-3 ovarian): > 100 µM
TGI (SF-539 CNS): > 100 µM
TGI (CCRF-CEM leukemia): > 100 µM
TGI (LXFL 529 NSCLC): > 100 µM
TGI (K-562 leukemia): > 100 µM
TGI (HCC-2998 colon): > 100 µM
TGI (HCT-116 colon): > 100 µM
TGI (UACC-62 melanoma): > 100 µM
TGI (OVCAR-5 ovarian): > 100 µM
TGI (SR leukemia): > 100 µM
TGI (LOX IMVI melanoma): > 100 µM
TGI (EKVX NSCLC): > 100 µM
TGI (SK-MEL-28 melanoma): > 100 µM
TGI (SF-295 CNS): > 100 µM
TGI (NCI-H460 lung): > 100 µM
